In ChEMBL document CHEMBL3507680, “University of Dundee, Gates Library screen for HepG2 cell viability”:

Test: Human HepG2 cell viability assay in 384 well format
Assay type: toxicity, cell-based
Parameters: dose 125 nL, time 70.5 hour; cytotoxicity at 70.5 h: concentration not given beside the values
Settings: HepG2 cells, read-out: Inhibition

Work on `O=C(CN1CCCC1Cn1cncn1)NCCC1=CCCCC1` (centres undefined) yielded a cytotoxicity at 70.5 h of 1.2%.

Work on `Cn1cc(C2CCCN2Cc2csc(Cc3ccccc3)n2)cn1` (centres undefined) yielded a cytotoxicity at 70.5 h of -8.68%.

Work on `Cc1ccccc1-c1cc(C(=O)N2CCCC(n3ccnc3C)C2)[nH]n1` (centres undefined) yielded a cytotoxicity at 70.5 h of 13.3%.

In the case of `CCN1CCN(C(=O)c2nc(C)n(-c3ccccc3Cl)n2)CC1`, the cytotoxicity at 70.5 h is reported as 7.74%.

`CCc1noc(C)c1C(=O)N1CCCC1Cn1nc(C)cc1C` (centres undefined) gave a cytotoxicity at 70.5 h of -3.58%.

Compound `CC(=O)Nc1nc(C(=O)N2CCCC(n3ccnc3)C2)cs1` (centres undefined) has a cytotoxicity at 70.5 h of -0.488%.

`COCCc1noc(CN2CCc3nn(C(C)C)c(=O)cc3C2)n1` gave a cytotoxicity at 70.5 h of 32.4%.

Compound `CN(Cc1ccc(Cl)s1)C(=O)NCc1nnc2n1CCC2` has a cytotoxicity at 70.5 h of 2.59%.

Compound `CC(=O)NC1CCCN(C(=O)NCc2ccc(-c3ccn[nH]3)cc2)C1` (centres undefined) has a cytotoxicity at 70.5 h of 3.22%.

In the case of `CC(C)(C)c1ncc(C(=O)NCCNC(=O)c2ccccc2)s1`, the cytotoxicity at 70.5 h is reported as 1.17%.

With `Cc1[nH]nc2ncc(C(=O)N3CCN(CC(C)C)CC3)cc12` the cytotoxicity at 70.5 h was 11.9%.

`CC(=O)N1CCCN(C(=O)NCc2cc[nH]n2)CC1` gave a cytotoxicity at 70.5 h of 44.8%.

`O=C(CCc1cccs1)N1CCC(Nc2cccnn2)CC1` gave a cytotoxicity at 70.5 h of 42.7%.

`O=C(CCCOc1ccc(F)cc1F)N1CCCC1Cn1cccn1` (centres undefined) showed a cytotoxicity at 70.5 h of 1.98%.

Work on `Cc1ccc(NS(=O)(=O)c2cc3c(c(C(=O)O)c2)OCCO3)c(F)c1` yielded a cytotoxicity at 70.5 h of 44.6%.

`Cc1ccccc1NS(=O)(=O)c1cc2c(c(C(=O)O)c1)OCCO2` gave a cytotoxicity at 70.5 h of 6.41%.

For `COC(=O)c1ccc(N2CCN(CCN3CCOCC3)C(C)C2)cc1` (centres undefined), the cytotoxicity at 70.5 h was -6.62%.

With `COC1CCN(C(=O)CCc2c(C)nc3ccnn3c2C)CC1` the cytotoxicity at 70.5 h was -0.665%.

Compound `CC(Cn1cccn1)NCc1nc(-c2cccc(Cl)c2)no1` (centres undefined) has a cytotoxicity at 70.5 h of 7.24%.

For `CC(Cn1cccn1)NCc1nc(-c2cccs2)no1` (centres undefined), the cytotoxicity at 70.5 h was 3.96%.

`Cc1nn(C)c(C)c1CC(=O)N1CCCC(n2cccn2)C1` (centres undefined) gave a cytotoxicity at 70.5 h of -2.45%.

`CC(C)c1noc(C(C)N2CCN(Cc3ccccc3C#N)CC2)n1` (centres undefined) gave a cytotoxicity at 70.5 h of 2.84%.

`CNC(=O)c1ccc(C(=O)N2CCCC2c2cnn(C)c2)cn1` (centres undefined) gave a cytotoxicity at 70.5 h of 1.99%.

`Cc1nc(CN2CCc3nn(C(C)C)c(=O)cc3C2)oc1C` showed a cytotoxicity at 70.5 h of 4.51%.

Compound `CC(C)c1noc(C(C)N2CCN(Cc3ccco3)CC2)n1` (centres undefined) has a cytotoxicity at 70.5 h of -9.38%.

For `Cc1ncc2c(n1)CN(CC(=O)Nc1nncs1)CC2`, the cytotoxicity at 70.5 h was -6.76%.

Work on `CN(C)C(=O)CS(=O)(=O)Cc1cc(Cl)c2c(c1)OCO2` yielded a cytotoxicity at 70.5 h of -2.34%.

Work on `Cc1nc(CN(Cc2cccs2)C2CCS(=O)(=O)C2)oc1C` (centres undefined) yielded a cytotoxicity at 70.5 h of -16%.

Work on `CCc1nnc2n1CCN(C(=O)CN(C)Cc1ccccc1)C2` yielded a cytotoxicity at 70.5 h of -4.4%.

`CCNc1cc2c(nn1)CCN(C(=O)Cc1noc3ccccc13)C2` showed a cytotoxicity at 70.5 h of -12.5%.

Work on `CN(CC(=O)NC1(C#N)CCCC1)C1CCCN(c2cccnn2)C1` (centres undefined) yielded a cytotoxicity at 70.5 h of -1.63%.

`CCc1ccc(S(=O)(=O)Nc2cc(C(=O)O)c(F)cc2F)s1` showed a cytotoxicity at 70.5 h of 26.3%.

`Cc1nc(C2CCCN(C(=O)c3ccc(OCC4CC4)cc3)C2)no1` (centres undefined) gave a cytotoxicity at 70.5 h of 31%.

`Cc1cn2c(n1)CCC(NC(=O)CCn1cncn1)C2` (centres undefined) showed a cytotoxicity at 70.5 h of -8.43%.

`CN(C)CC1CN(Cc2csc(C3CCCC3)n2)CCO1` (centres undefined) showed a cytotoxicity at 70.5 h of -12.3%.

In the case of `COCCN1CCC(CNC(=O)c2cc(C)cc(C)c2)C1` (centres undefined), the cytotoxicity at 70.5 h is reported as -11.9%.

`CCc1nc2n(n1)CC(NCc1noc(-c3ccccc3)n1)CC2` (centres undefined) showed a cytotoxicity at 70.5 h of 12.2%.

For `O=C(c1cccn1Cc1cccs1)N1CCCC1Cn1cccn1` (centres undefined), the cytotoxicity at 70.5 h was -20.8%.

For `OCCn1cc(CN2CCN(CCOCC(F)(F)F)CC2)cn1`, the cytotoxicity at 70.5 h was 6.14%.

For `CCc1nnc2n1CCN(Cc1ccc3c(c1)OCCO3)C2`, the cytotoxicity at 70.5 h was 15.4%.

With `CN(Cc1cnn(C)c1)C(=O)NCc1csc(Br)c1` the cytotoxicity at 70.5 h was 17.7%.

`CCc1nnc2n1CCN(Cc1ccc(C(=O)N3CCCC3)cc1)C2` showed a cytotoxicity at 70.5 h of -25.8%.

In the case of `Cc1cc(C2CCCN(C(=O)CN3CCN(C)CC3)C2)n[nH]1` (centres undefined), the cytotoxicity at 70.5 h is reported as -11.8%.

Compound `Cc1ncsc1C(=O)NCc1cccs1` has a cytotoxicity at 70.5 h of -16.4%.

`Cn1cc(CCNC(=O)CCc2ccc3c(c2)OCO3)cn1` gave a cytotoxicity at 70.5 h of -8.33%.

Compound `CC(NC(=O)NCCCn1cncn1)c1ccc2c(c1)OCCO2` (centres undefined) has a cytotoxicity at 70.5 h of -7.07%.

`Cc1ccc(C(C)N(C)Cc2nc3c(cnn3C)c(=O)[nH]2)cc1` (centres undefined) showed a cytotoxicity at 70.5 h of -17.2%.

With `CC(c1ccco1)N(C)Cc1nc2c(cnn2C)c(=O)[nH]1` (centres undefined) the cytotoxicity at 70.5 h was -11.1%.

`CC(C(N)=O)N(C)CCCc1cc(-c2ccccc2)no1` (centres undefined) showed a cytotoxicity at 70.5 h of -2.88%.

With `CS(=O)(=O)NC1CCN(C(=O)NCCNc2ccccn2)CC1` the cytotoxicity at 70.5 h was 20.3%.

Compound `CCOc1ncccc1NC(=O)N1CCN(c2cccc(C)c2C)CC1` has a cytotoxicity at 70.5 h of 21.9%.

Work on `CC(=O)NCCNC(=O)N(C)Cc1ccc2c(c1)OCCO2` yielded a cytotoxicity at 70.5 h of -12%.

In the case of `N#Cc1ccccc1OCCN1CCC(N2CCNC2=O)CC1`, the cytotoxicity at 70.5 h is reported as -11.9%.

With `O=C(CN1CCOC(Cn2cccn2)C1)Nc1nccs1` (centres undefined) the cytotoxicity at 70.5 h was -16.1%.

With `COc1nc(C)cc(C)c1CNC(=O)N(C)Cc1cnn(C)c1` the cytotoxicity at 70.5 h was -18%.

With `OCCn1cc(CN2CCN(CCOc3ccccc3)CC2)cn1` the cytotoxicity at 70.5 h was -16%.

With `Cc1cnn(CCNCc2ccc(C#N)cc2F)c1` the cytotoxicity at 70.5 h was -13.7%.

For `Cc1cnn(CCNCc2ccc(F)cc2Cl)c1`, the cytotoxicity at 70.5 h was -10.2%.

For `Cc1nn(C)c(C)c1C1CCCN1C(=O)c1ccc(NC2CC2)nc1` (centres undefined), the cytotoxicity at 70.5 h was -17.5%.
